Measured values reported in ChEMBL document CHEMBL4177534, “Discovery and evaluation of 1H-pyrrolo[2,3-b]pyridine based selective and reversible small molecule BTK inhibitors for the treatment of rheumatoid arthritis” (Bioorg Med Chem Lett, 2017).

Assays:
[1] = Metabolic stability in mouse liver microsomes assessed as metabolism rate; assay type: ADME, microsome
[2] = Metabolic stability in human liver microsomes assessed as metabolism rate; assay type: ADME, microsome
[3] = molecular target: Tyrosine-protein kinase ITK/TSK (Homo sapiens, UniProt Q08881); experiment: Inhibition of recombinant human full length ITK preincubated for 10 mins followed by Tk-biotin peptide substrate addition after 60 mins by TR-FRET assay
[4] = molecular target: Tyrosine-protein kinase JAK3 (Homo sapiens, UniProt P52333); experiment: Inhibition of recombinant human JAK3 (781 to 1124 residues) preincubated for 10 mins followed by poly-[Glu-Tyr(4:1) substrate addition after 60 mins in presence of ATP by Kinase-Glo assay
[5] = Clearance in mouse at 3 mg/kg, iv; assay type: ADME, organism-based; details: in vivo
[6] = Half life in mouse at 3 mg/kg, iv; assay type: ADME, organism-based; details: in vivo
Mus musculus [7] = experiment: Ex-vivo inhibition of BTK in C57BL/6J mouse assessed as anti-mouse IgD antibody stimulated BCR mediated CD69 level in whole blood isolated from 10 mg/kg, po bid treated mouse measured after 6 hrs post first dose by flow cytometry relative to control; assay type: functional; parameters: scale not given: the % may be the effect or the level left
Mus musculus [8] = experiment: Ex-vivo inhibition of BTK in C57BL/6J mouse assessed as anti-mouse IgD antibody stimulated BCR mediated CD69 level in whole blood isolated from 30 mg/kg, po bid treated mouse measured after 6 hrs post first dose by flow cytometry relative to control; assay type: functional; parameters: scale not given: the % may be the effect or the level left
Mus musculus [9] = experiment: Antiarthritic activity in DBA/1J mouse type-2 collagen-induced arthritis model assessed as reduction in joint histological score immunized with type-2 collagen on day 1 and day 21 followed by LPS challenge on day 28 subsequent compound administration po bid by hematoxylin and eosin staining based assay; assay type: functional, organism-based
[10] = molecular target: Receptor-type tyrosine-protein kinase FLT3 (Homo sapiens) (UniProt P36888); experiment: Inhibition of recombinant human N-terminal GST-tagged FLT3 (571 to 993 residues) expressed in baculovirus infected Sf9 cells assessed as change in enzyme activity at 1 uM in presence of 2 uM ATP relative to control; parameters: scale not given: the % may be the effect or the level left
[11] = molecular target: Cyclin-dependent kinase 1/Cyclin A1 (Homo sapiens) (UniProt P06493+P78396); experiment: Inhibition of recombinant human full length N-terminal GST-tagged CDK1/CyclinA1 expressed in baculovirus infected Sf9 cells assessed as change in enzyme activity at 1 uM in presence of 1 uM ATP relative to control; parameters: scale not given: the % may be the effect or the level left
[12] = molecular target: Platelet-derived growth factor receptor beta (Homo sapiens) (UniProt P09619); experiment: Inhibition of recombinant human full length N-terminal GST-tagged PDGFRbeta (unknown origin) expressed in baculovirus infected Sf9 cells assessed as change in enzyme activity at 1 uM in presence of 1 uM ATP relative to control; parameters: scale not given: the % may be the effect or the level left
[13] = molecular target: High affinity nerve growth factor receptor (Homo sapiens) (UniProt P04629); experiment: Inhibition of recombinant human N-terminal GST-tagged TRKA (440 to end residues) expressed in baculovirus infected Sf9 cells assessed as change in enzyme activity at 1 uM in presence of 2 uM ATP relative to control; parameters: scale not given: the % may be the effect or the level left
[14] = molecular target: AMPK alpha2/beta1/gamma1 (Homo sapiens) (UniProt P54646+P54619+Q9Y478); experiment: Inhibition of recombinant human full length C-terminal His tagged AMPKalpha2beta1gamma1 expressed in baculovirus infected Sf9 cells assessed as change in enzyme activity at 1 uM in presence of 2 uM ATP relative to control; parameters: scale not given: the % may be the effect or the level left
[15] = molecular target: RAC-alpha serine/threonine-protein kinase (Homo sapiens) (UniProt P31749); experiment: Inhibition of recombinant human full length N-terminal GST-tagged AKT1 expressed in baculovirus infected Sf9 cells assessed as change in enzyme activity at 1 uM in presence of 2 uM ATP relative to control; parameters: scale not given: the % may be the effect or the level left
[16] = molecular target: Mitogen-activated protein kinase 14 (Homo sapiens) (UniProt Q16539); experiment: Inhibition of recombinant human full length N-terminal GST-tagged p38alpha expressed in baculovirus infected Sf9 cells assessed as change in enzyme activity at 1 uM in presence of 1 uM ATP relative to control; parameters: scale not given: the % may be the effect or the level left
[17] = molecular target: MAP kinase-activated protein kinase 3 (Homo sapiens) (UniProt Q16644); experiment: Inhibition of recombinant human full length N-terminal GST-tagged MAPKAPK3 expressed in baculovirus infected Sf9 cells assessed as change in enzyme activity at 1 uM in presence of 1 uM ATP relative to control; parameters: scale not given: the % may be the effect or the level left
[18] = molecular target: Glycogen synthase kinase-3 beta (Homo sapiens) (UniProt P49841); experiment: Inhibition of recombinant human full length N-terminal GST/His tagged GSK3beta expressed in baculovirus infected Sf9 cells assessed as change in enzyme activity at 1 uM in presence of 1 uM ATP relative to control; parameters: scale not given: the % may be the effect or the level left
[19] = molecular target: Hepatocyte growth factor receptor (Homo sapiens) (UniProt P08581); experiment: Inhibition of recombinant human N-terminal GST-tagged MET (956 to end residues) expressed in baculovirus infected Sf9 cells assessed as change in enzyme activity at 1 uM in presence of 1 uM ATP relative to control; parameters: scale not given: the % may be the effect or the level left
[20] = molecular target: Serine/threonine-protein kinase pim-2 (Homo sapiens) (UniProt Q9P1W9); experiment: Inhibition of recombinant human full length N-terminal GST-tagged PIM2 expressed in baculovirus infected Sf9 cells assessed as change in enzyme activity at 1 uM in presence of 1 uM ATP relative to control; parameters: scale not given: the % may be the effect or the level left
[21] = molecular target: Protein kinase C (PKC) (Homo sapiens) (UniProt O94806+P41743+P17252+P05129+Q05655+P05771+Q05513+Q02156+P24723+Q15139+Q04759); experiment: Inhibition of recombinant human full length N-terminal GST-tagged PKCalpha expressed in baculovirus infected Sf9 cells assessed as change in enzyme activity at 1 uM in presence of 1 uM ATP relative to control; parameters: scale not given: the % may be the effect or the level left
[22] = molecular target: Tyrosine-protein kinase ABL1 (Homo sapiens) (UniProt P00519); experiment: Inhibition of recombinant human N-terminal GST-tagged ABL1 (27 to end residues) expressed in baculovirus infected Sf9 cells assessed as change in enzyme activity at 1 uM in presence of 1 uM ATP relative to control; parameters: scale not given: the % may be the effect or the level left
[23] = molecular target: Serine/threonine-protein kinase Chk1 (Homo sapiens) (UniProt O14757); experiment: Inhibition of recombinant human full length N-terminal GST/His tagged CHK1 expressed in baculovirus infected Sf9 cells assessed as change in enzyme activity at 1 uM in presence of 1 uM ATP relative to control; parameters: scale not given: the % may be the effect or the level left
[24] = molecular target: Mitogen-activated protein kinase kinase kinase 9 (Homo sapiens) (UniProt P80192); experiment: Inhibition of recombinant human N-terminal GST-tagged MLK1 (1 to 433 residues) expressed in baculovirus infected Sf9 cells assessed as change in enzyme activity at 1 uM in presence of 2 uM ATP relative to control; parameters: scale not given: the % may be the effect or the level left
[25] = molecular target: Serine/threonine-protein kinase Nek11 (Homo sapiens) (UniProt Q8NG66); experiment: Inhibition of recombinant human full length N-terminal GST-tagged NEK11 expressed in baculovirus infected Sf9 cells assessed as change in enzyme activity at 1 uM in presence of 2 uM ATP relative to control; parameters: scale not given: the % may be the effect or the level left
[26] = molecular target: Tyrosine-protein kinase Tec (Homo sapiens) (UniProt P42680); experiment: Inhibition of recombinant full length N-terminal GST-tagged TEC (unknown origin) expressed in baculovirus infected Sf9 cells assessed as change in enzyme activity at 1 uM in presence of 2 uM ATP relative to control; parameters: scale not given: the % may be the effect or the level left

Chain of Tyrosine-protein kinase ABL1 (Homo sapiens) (P00519 whole entry): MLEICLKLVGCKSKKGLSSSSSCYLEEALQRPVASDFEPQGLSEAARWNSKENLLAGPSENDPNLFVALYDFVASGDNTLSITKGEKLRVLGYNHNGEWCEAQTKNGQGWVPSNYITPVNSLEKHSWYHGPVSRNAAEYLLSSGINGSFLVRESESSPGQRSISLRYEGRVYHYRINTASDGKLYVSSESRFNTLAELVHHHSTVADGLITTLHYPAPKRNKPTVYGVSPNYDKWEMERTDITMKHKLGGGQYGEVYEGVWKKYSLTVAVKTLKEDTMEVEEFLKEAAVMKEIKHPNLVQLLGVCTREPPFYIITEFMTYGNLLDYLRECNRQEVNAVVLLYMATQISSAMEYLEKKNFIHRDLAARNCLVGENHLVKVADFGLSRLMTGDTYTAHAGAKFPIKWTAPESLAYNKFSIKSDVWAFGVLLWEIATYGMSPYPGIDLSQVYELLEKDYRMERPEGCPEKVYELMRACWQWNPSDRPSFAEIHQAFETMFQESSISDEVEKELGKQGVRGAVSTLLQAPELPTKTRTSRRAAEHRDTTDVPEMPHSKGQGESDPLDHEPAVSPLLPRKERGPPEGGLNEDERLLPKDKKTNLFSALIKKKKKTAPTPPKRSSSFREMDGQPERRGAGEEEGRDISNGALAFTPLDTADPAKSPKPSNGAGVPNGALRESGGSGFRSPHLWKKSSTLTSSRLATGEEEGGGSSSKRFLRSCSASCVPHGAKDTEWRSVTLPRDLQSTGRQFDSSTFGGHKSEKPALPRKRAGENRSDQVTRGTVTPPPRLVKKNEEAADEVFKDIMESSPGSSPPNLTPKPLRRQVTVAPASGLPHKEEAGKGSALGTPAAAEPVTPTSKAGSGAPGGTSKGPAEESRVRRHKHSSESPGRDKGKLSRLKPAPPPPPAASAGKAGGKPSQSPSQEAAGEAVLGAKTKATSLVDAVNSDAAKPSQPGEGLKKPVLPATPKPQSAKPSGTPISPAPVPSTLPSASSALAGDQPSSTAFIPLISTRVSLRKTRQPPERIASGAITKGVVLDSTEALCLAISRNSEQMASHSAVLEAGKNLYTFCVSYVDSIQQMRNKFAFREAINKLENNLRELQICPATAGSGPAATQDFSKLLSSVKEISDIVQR
Chain of Serine/threonine-protein kinase pim-2 (Homo sapiens) (Q9P1W9 whole entry, looked up): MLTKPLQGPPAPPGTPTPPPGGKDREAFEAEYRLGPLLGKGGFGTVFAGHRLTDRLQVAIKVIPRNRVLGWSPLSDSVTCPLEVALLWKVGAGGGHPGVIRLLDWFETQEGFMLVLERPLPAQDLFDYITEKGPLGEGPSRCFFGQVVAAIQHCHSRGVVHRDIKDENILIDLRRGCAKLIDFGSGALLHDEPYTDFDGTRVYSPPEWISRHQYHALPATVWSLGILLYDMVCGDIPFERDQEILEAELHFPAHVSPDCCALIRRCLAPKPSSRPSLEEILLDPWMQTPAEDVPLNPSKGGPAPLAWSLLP
Chain of Mitogen-activated protein kinase 14 (Homo sapiens) (Q16539 whole entry): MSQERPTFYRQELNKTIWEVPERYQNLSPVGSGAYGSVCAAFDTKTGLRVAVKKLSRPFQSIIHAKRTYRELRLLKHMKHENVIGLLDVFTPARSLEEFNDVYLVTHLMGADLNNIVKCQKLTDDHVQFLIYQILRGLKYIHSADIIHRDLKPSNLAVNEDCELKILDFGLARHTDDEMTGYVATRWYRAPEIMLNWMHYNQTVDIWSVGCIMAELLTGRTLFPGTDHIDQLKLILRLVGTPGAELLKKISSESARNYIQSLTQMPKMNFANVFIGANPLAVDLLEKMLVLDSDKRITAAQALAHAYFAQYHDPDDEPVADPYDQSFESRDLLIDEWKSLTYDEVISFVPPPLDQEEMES
Chain of Platelet-derived growth factor receptor beta (Homo sapiens) (P09619 whole entry): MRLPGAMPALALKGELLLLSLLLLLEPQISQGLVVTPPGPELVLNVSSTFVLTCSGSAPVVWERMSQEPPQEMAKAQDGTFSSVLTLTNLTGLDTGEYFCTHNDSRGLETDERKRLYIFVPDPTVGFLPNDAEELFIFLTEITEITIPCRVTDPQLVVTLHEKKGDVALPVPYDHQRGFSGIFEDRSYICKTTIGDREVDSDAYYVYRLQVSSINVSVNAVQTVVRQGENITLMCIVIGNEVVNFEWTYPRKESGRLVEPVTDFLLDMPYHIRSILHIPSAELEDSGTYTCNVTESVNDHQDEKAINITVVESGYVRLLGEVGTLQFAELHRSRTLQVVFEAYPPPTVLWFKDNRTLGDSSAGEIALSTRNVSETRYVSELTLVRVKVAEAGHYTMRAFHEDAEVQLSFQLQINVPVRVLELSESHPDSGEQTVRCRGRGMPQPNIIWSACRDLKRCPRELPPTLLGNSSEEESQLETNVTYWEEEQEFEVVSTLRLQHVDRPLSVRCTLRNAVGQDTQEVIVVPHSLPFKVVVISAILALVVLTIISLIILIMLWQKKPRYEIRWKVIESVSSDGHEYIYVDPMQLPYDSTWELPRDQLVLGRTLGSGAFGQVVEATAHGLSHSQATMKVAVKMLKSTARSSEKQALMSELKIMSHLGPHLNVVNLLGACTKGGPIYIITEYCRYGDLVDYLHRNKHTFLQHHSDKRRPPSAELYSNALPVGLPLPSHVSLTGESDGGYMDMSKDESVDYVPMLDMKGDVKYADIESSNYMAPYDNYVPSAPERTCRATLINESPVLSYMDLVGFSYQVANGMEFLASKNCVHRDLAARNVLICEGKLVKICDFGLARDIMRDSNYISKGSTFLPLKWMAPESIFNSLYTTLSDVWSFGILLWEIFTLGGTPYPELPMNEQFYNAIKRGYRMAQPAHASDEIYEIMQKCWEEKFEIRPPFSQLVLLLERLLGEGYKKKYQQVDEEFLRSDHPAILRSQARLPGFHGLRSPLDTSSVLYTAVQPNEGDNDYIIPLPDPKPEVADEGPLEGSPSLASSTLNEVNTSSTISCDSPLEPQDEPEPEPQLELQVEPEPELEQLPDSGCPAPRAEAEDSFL
Chain of High affinity nerve growth factor receptor (Homo sapiens) (P04629 33-796 limits assumed): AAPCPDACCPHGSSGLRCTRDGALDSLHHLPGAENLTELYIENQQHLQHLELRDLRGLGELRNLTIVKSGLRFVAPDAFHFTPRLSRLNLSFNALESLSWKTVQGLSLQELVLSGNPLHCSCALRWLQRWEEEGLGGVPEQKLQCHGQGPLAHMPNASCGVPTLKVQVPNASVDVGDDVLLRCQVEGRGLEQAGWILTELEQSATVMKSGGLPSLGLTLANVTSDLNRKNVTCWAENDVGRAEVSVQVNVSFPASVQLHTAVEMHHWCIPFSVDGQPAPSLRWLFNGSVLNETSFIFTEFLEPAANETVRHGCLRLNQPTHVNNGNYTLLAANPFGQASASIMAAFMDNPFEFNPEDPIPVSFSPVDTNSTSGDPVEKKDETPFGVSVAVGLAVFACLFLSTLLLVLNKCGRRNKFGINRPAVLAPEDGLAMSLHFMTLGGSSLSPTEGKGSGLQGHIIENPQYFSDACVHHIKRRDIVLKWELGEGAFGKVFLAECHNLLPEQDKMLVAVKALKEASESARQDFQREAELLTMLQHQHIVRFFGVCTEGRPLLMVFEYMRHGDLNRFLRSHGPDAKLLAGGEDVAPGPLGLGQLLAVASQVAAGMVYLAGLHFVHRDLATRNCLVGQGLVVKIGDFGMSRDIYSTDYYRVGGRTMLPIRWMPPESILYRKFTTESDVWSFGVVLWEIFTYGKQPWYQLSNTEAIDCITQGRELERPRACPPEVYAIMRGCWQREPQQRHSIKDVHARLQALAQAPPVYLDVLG
Chain of Tyrosine-protein kinase ITK/TSK (Q08881 whole entry, the tested form may be a part): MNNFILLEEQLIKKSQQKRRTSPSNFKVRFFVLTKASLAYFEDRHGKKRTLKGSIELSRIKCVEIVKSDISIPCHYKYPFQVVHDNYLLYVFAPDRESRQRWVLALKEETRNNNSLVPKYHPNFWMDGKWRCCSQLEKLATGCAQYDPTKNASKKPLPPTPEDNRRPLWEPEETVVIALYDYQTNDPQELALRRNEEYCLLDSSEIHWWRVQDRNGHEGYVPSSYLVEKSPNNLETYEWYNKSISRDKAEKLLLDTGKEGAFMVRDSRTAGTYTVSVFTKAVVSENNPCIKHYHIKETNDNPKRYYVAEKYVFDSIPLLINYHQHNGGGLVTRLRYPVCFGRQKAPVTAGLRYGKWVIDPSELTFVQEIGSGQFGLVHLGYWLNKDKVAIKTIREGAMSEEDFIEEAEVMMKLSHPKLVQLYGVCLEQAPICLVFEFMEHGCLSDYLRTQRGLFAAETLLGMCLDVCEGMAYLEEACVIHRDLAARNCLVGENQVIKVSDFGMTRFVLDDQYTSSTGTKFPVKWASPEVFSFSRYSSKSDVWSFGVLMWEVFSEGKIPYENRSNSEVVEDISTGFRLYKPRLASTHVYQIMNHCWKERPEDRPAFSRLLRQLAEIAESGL
Chain of Glycogen synthase kinase-3 beta (Homo sapiens) (P49841 whole entry, looked up): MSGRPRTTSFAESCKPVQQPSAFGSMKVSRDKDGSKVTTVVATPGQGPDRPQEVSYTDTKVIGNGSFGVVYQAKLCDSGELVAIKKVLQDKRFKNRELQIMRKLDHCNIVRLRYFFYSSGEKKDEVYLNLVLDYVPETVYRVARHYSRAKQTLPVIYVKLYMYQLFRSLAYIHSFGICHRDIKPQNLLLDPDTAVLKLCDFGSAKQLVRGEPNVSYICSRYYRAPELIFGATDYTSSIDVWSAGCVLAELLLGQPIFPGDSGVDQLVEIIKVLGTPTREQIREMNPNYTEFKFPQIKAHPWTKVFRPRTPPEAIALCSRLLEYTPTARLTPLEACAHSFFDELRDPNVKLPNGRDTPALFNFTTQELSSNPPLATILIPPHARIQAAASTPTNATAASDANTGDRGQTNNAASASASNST

| Compound | Drug metabolism [1] | Drug metabolism [2] | IC50 [3] | IC50 [4] | clearance [5] | half-life [6] | Activity (Mus musculus [7]) | Activity (Mus musculus [8]) | Activity (Mus musculus [9]) | Activity [10] | Activity [11] | Activity [12] | Activity [13] | Activity [14] | Activity [15] | Activity [16] | Activity [17] | Activity [18] | Activity [19] | Activity [20] | further results |
| --- | --- | --- | --- | --- | --- | --- | --- | --- | --- | --- | --- | --- | --- | --- | --- | --- | --- | --- | --- | --- | --- |
| O=C1c2c(F)cc(C3CC3)cc2OCCN1c1cccc(-c2ccnc3[nH]c(C4=CCN(C5COC5)CC4)cc23)c1CO | < 0.04 nmol/min/mg | < 0.04 nmol/min/mg | > 10 µM | > 10 µM | 5.5 mL/min/kg | 1.1 h | 44% | 56% | Dose-dependent effect | -5% | -3% | -3% | -10% | 1% | -3% | 4% | 3% | -2% | 5% | 1% | Activity [21]: -1%; Activity [22]: -16%; Activity [23]: -3%; Activity [24]: 2%; Activity [25]: -6%; Activity [26]: -31% |
| CCN1CCN(Cc2ccc(-c3cc4c(-c5cccc(N6CCOc7cc(C8CC8)cc(F)c7C6=O)c5CO)ccnc4[nH]3)nc2)CC1 | < 0.04 nmol/min/mg | < 0.04 nmol/min/mg | > 10 µM | > 10 µM | 4.6 mL/min/kg | 5.6 h | 69% | 81% | Dose-dependent effect | -5% | 1% | 2% | -4% | 2% | -15% | -7% | -4% | 2% | -6% | 0% | Activity [21]: -1%; Activity [22]: -41%; Activity [23]: -14%; Activity [24]: -6%; Activity [25]: -5%; Activity [26]: -35% |
